Tests used:
mt-DHFR = biological target: T1, mt-DHFR (Mycobacterium tuberculosis, UniProt P9WNX1); assay: biochemical; assay type: biochemical; conditions: for potency on mt-DHFR compared to h-DHFR: in vitro enzyme assays; for Ratio h-DHFR/mt-DHFR: ratio of IC50 values
T1 construct: made in house

h-DHFR = biological target: T2, h-DHFR (Homo sapiens, UniProt P00374); assay: in vitro enzyme assay, recombinant h-DHFR (NADPH oxidation at 340 nm); assay type: biochemical; conditions: recombinant enzyme 20 nM, 40 μM NADPH, 40 μM dihydrofolate, pH 7.0, 25 °C
T2 construct: made in house
T2 sequence (P00374 1-187): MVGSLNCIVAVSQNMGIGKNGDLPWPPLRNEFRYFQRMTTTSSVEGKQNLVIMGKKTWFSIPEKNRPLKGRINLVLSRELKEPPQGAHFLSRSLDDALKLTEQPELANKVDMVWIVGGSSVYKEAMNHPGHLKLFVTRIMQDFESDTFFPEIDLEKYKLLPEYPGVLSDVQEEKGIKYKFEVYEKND

[1] = test system: M. tuberculosis H37Ra (ATCC 25177); assay: Microbroth culture for bacteriostatic and bactericidal activity (OD readings, subculture on 7H10 agar); assay type: cell-based, Mycobacterium tuberculosis; conditions: Mtb H37Ra; for growth inhibition on the test strain: overall
Description: The anti-mycobacterial activity of the compounds was tested by the measurement of OD readings and agar plate cultures. The test strain used was a stock culture of M. tuberculosis H37Ra (ATCC 25177) stored at −80 °C. Prior to testing, the stock culture was thawed and grown on Middlebrook 7H10 agar (Difco, USA) to check for viability and purity. To prepare the inoculum, a suspension of the culture in Middlebrook 7H9 broth (Difco, USA) was adjusted to a turbidity equivalent to McFarland standard no.1 and further diluted to a final concentration of approximately 10^5 cfu/ml. The compounds were dissolved in DMSO and diluted in 1% DMSO in 7H9 broth to obtain 100 μg/ml, 50 μg/ml, 10 μg/ml, 5 μg/ml 1 μg/ml and 0.1 μg/ml of compound. Each dilution was pipetted in 150 μl duplicates into a sterile 96-well microtitre plate. Three controls were set up with (a) 1% DMSO in 7H9 broth (b) 7H9 broth without DMSO and (c) p-amino salicylic acid (PAS) at 4 μg/ml (26.12 μM) in 7H9 broth with 1% DMSO. All wells were then inoculated with 10 μl of the mycobacterial culture at 10^5 cfu/ml, sealed with parafilm and incubated at 36 °C for 28 days. OD readings (at 630 nm wavelength) were taken daily using TECAN spectrophotometer with Magellan software version 7.1. In addition, on day 14 and day 28, 10 μl was removed from each well for subculturing on compound-free 7H10 agar plates which were incubated up to six weeks at 36 °C. The number, size and time of appearance of colonies in each subculture was recorded. A random sample of colonies was stained for acid-fastness to exclude non-mycobacterial contamination. […] Compounds showing less increase in OD readings than the no-compound controls but positive growth in the subcultures were deemed to have bacteriostatic activity.

mt-DHFR against h-DHFR = test system: mt-DHFR against h-DHFR; design: method as in PMID 17451962; conditions: TB5 Saccharomyces cerevisiae carrying DHFR genes; cited from earlier work
[2] = test system: human DHFR (h-DHFR) and mt-DHFR; conditions: cited from earlier work
[3] = compound concentration 0.1 μg/ml
[4] = compound concentration 10 μg/ml
[5] = compound concentration 50 μg/ml
[6] = compound concentration 100 μg/ml

T1 sequence (P9WNX1 whole entry): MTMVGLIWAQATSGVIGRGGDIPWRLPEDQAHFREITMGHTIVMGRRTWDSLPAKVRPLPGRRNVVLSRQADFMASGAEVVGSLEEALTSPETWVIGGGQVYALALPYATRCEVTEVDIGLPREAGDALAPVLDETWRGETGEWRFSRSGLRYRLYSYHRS

| Compound | IC50 (mt-DHFR) [nM] | Ratio h-DHFR/mt-DHFR (mt-DHFR) | IC50 (h-DHFR) [nM] | colony counts after four weeks of exposure [1, 3] | colony counts after four weeks of exposure ([1]; compound concentration 1 μg/ml) | colony counts after four weeks of exposure ([1]; compound concentration 5 μg/ml) | colony counts after four weeks of exposure [1, 4] | colony counts after four weeks of exposure [1, 5] | colony counts after four weeks of exposure [1, 6] | further results |
| --- | --- | --- | --- | --- | --- | --- | --- | --- | --- | --- |
| Nc1nc(N)c2cc(Sc3ccc(Cl)cc3)ccc2n1 [Compound 8] | 40 | 2.5 | 100 | +++ | +++ | +++ | +++ | +++ | – | potency on mt-DHFR compared to h-DHFR (mt-DHFR): more potent inhibitors of mt-DHFR compared to h-DHFR; activity compared with PAS (4 μg/ml) ([1]; 100 μg/ml): better activity than PAS; bactericidal activity ([1]; 100 μg/ml): bactericidal activity; growth in the 14-day subculture ([1]; after exposure to 50 μg/ml): did not grow; growth in the 28-day subculture ([1]; after exposure to 50 μg/ml): formed abundant colonies |
| Nc1nc(N)c(-c2ccccc2)c(CC[C@@H](O)[C@@H](O)CO)n1 [El-7a] | – | – | – | – | – | – | – | – | – | selectivity for inhibition effects on mt-DHFR against h-DHFR (mt-DHFR against h-DHFR): notable selectivity |
| Nc1nc(N)c2c(ccc3c2ccn3Cc2cccc([N+](=O)[O-])c2)n1 [Compound 6] | 6 | 5.5 | 33 | +++ | +++ | +++ | ++ (++, 11–100 colonies) | – | – | inhibition of mt-DHFR (mt-DHFR; in vitro enzyme assay): most potent inhibitor of mt-DHFR; potency on mt-DHFR compared to h-DHFR (mt-DHFR): more potent inhibitors of mt-DHFR compared to h-DHFR; activity compared with PAS (4 μg/ml, 26.12 μM) ([1]; 10 μg/ml (25.37 μM)): same activity as PAS; colony count ([1]; 10 μg/ml (25.37 μM)): notable reduction in colony count; bactericidal activity ([1]; 50 μg/ml): bactericidal; activity compared with PAS (4 μg/ml) ([1]; 100 μg/ml): better activity than PAS; bactericidal activity ([1]; 100 μg/ml): bactericidal activity; growth inhibition on the test strain [1]: strongest bactericidal activity |
| CN(Cc1cnc2nc(N)nc(N)c2n1)c1ccc(C(=O)N[C@@H](CCC(=O)O)C(=O)O)cc1 [MTX, Methotrexate] | – | – | – | – | – | – | – | – | – | selectivity of binding h-DHFR vs mt-DHFR [2]: without any significant selectivity |
| Nc1nc(N)c2cc(S(=O)(=O)c3ccc(Cl)cc3)ccc2n1 [Compound 7] | 63 | 6.98 | 440 | +++ | +++ | +++ | +++ | +++ | +++ | potency on mt-DHFR compared to h-DHFR (mt-DHFR): more potent inhibitors of mt-DHFR compared to h-DHFR; growth inhibition on the test strain [1]: least growth inhibition, affecting the colony size but not the colony count |
| Nc1nc(N)c(-c2ccc(Cl)c(Cl)c2)c(COc2ccc([N+](=O)[O-])cc2)n1 [Compound 1] | 130 | 1 | 130 | +++ | +++ | +++ | +++ | +++ | +++ | – |
| Nc1nc(N)c(-c2ccc(Cl)c(Cl)c2)c(COc2cccc3ccccc23)n1 [Compound 2] | 110 | 0.64 | 70 | +++ | +++ | +++ | +++ | ++ (++, 11–100 colonies) | ++ (++, 11–100 colonies) | – |
| Nc1ccc(C(=O)O)c(O)c1 [PAS, p-amino salicylic acid, reference compound] | – | – | – | – | – | – | – | – | – | delay in the appearance of colonies ([1]; PAS 4 μg/ml (26.12 μM)): two-week delay; growth of colonies on 7H10 agar ([1]; PAS 4 μg/ml (26.12 μM)): only scanty growth; reduction in growth ([1]; PAS 4 μg/ml (26.12 μM)): more than two-log reduction in growth; colony counts after four weeks of exposure ([1]; PAS control at 4 μg/ml (26.12 μM)): ++ (++, 11–100 colonies) |
| CC(=O)Nc1cccc(OCc2cccc(N3C(=N)NC(=N)NC3(C)C)c2)c1 [Compound 5] | – | – | – | +++ | +++ | +++ | +++ | +++ | +++ | – |
| Nc1ccc(C(=O)Nc2ccc(OCc3nc(N)nc(N)c3-c3ccc(Cl)cc3)cc2)cc1 [Compound 4] | 2600 | 0.96 | 2500 | +++ | +++ | +++ | +++ | ++ (++, 11–100 colonies) | – | activity compared with PAS (4 μg/ml) ([1]; 100 μg/ml): better activity than PAS; bactericidal activity ([1]; 100 μg/ml): bactericidal activity |
| Nc1nc(N)c(-c2cccc(C(F)(F)F)c2)c(Cc2cccc(C(F)(F)F)c2)n1 [Compound 3] | 180 | 0.75 | 135 | +++ | +++ | +++ | +++ | ++ (++, 11–100 colonies) | + (+, 1–10 colonies) | – |

— paper PMC4607890, “The identification of novel Mycobacterium tuberculosis DHFR inhibitors and the investigation of their binding preferences by using molecular modelling” (Scientific Reports, 2015)
